Experimental data as given in PubChem BioAssay AID1963421 (Molecular Pharmacology Branch, DTP, NCI, 2024).
“And” between values parts separate entries of the source, which are not always exact repeats. Identical values can stand only once.

Tested on: 519858-162-T-J1-PDC complex spheroid growth, % test/control
Assay: Anticancer human tumor 519858-162-T-J1-PDC patient-derived colon adenocarcinoma cell line growth inhibition [Asc]
Details: for viability, T/C: stronger effect = lower value
Method: Multicellular complex tumor spheroid response to apoptosis pathway targeting inhibitors Alrizomadlin, Pelcitoclax, and Dasminapant in combination with a variety of drugs and investigational agents in selected tumor cell lines
The MDM2 inhibitor alrizomadlin, the Bcl-2/Bcl-xL inhibitor pelcitoclax, and the IAPs inhibitor dasminapant were evaluated both individually and in combination with standard of care and investigational anticancer small molecules within a complex spheroid model of solid tumors. . Complex spheroids include a stromal component modeled by human endothelial cells (HUVEC) and fibroblasts modeled by human mesenchymal stem cells (MSCs). The concentration ranges selected for each drug and investigational agent were based upon clinically achievable concentrations if the clinical Cmax of the agent was known.
Compounds. The drugs and investigational agents: alrizomadlin (APG-115; NSC831270), pelcitoclax (APG-1252; NSC835773), dasminapant (APG-1387;NSC834197), TAK-243 (NSC785004), copanlisib (NSC809693), olaparib (NSC753686), talazoparib (NSC767125), cobimetinib (NSC 768068), eltanexor (KPT-8602, NSC 794443), abemaciclib (NSC 768073), sotorasib (NSC818433), adagrasib (NSC 831453), MRTX-1133 (NSC 836407), Iadademestat (ORY1001, NSC 806812), and RMC-4630 (NSC839698), were obtained from the NCI Developmental Therapeutics Program Chemical Repository. The FDA-approved anticancer drug set is available from the Developmental Therapeutics Program at https://dtp.cancer.gov/organization/dscb/obtaining/available plates.htm. […] The stock solutions were prepared in dimethyl sulfoxide (DMSO, Sigma-Aldrich, St. Louis, MO, cat. D2650) at 800-fold the tested concentration and stored at -70 degrees C prior to their use. All drugs and investigational agents were tested over a range starting from a high concentration at or near the clinical Cmax and decreasing in half-log increments. If the clinical Cmax for an agent had not been determined, the highest concentration tested was 10 microM.
The patient-derived cancer (PDC) cell lines include five colon adenocarcinomas: 186277-243-T-J2-PDC, 616215-338-R-J1-PDC, 439559-082-T-J2-PDC, 463943-066-T-J2-PDC, and 519858-162-T-J1-PDC; three pancreatic carcinomas: 323965-272-R-J2-PDC, 521955-158-R6-J3-PDC, and 521955-158-R2-J5-PDC; two uterine sarcomas: 327498-152-R-J2-PDC and 993429-296-R-J1-PDC; two rhabdomyosarcomas: 755483-174-R-J1-PDC and 772245-204-R-J1-PDC; two soft tissue sarcomas: 126254-015-R-J1-PDC and 494315-158-R-J1-PDC; two malignant fibrous histiocytomas: 317291-083-R-J1-PDC and 596521-263-R-J1-PDC; two breast carcinomas: 171881-019-R-J1-PDC and 885512-296-R-J2-PDC; and one ovarian carcinoma: 6556581-035-R-J-PDC were obtained from the NCI PDMR, (https://pdmr.cancer.gov). The established cell lines HSSY-2 synovial sarcoma (RRID:CVCL 8719), SYO-1 synovial sarcoma (RRID:CVCL_7146), MPNST malignant peripheral neural sheath tumor were obtained from the Sloan Kettering Institute. The following established cell lines were purchased from the American Type Culture Collection (ATCC, Manassas, VA), Sor the received from the NCI repository:, PANC-1 pancreatic carcinoma (CRL-1469, RRID:CVCL_0480), OVCAR-5 ovarian carcinoma (RRID:CVCL_1628), OVCAR-8 ovarian carcinoma (RRID:CVCL_1629), , MCF-7 breast carcinoma (CRL-12584, RRID:CVCL_0031), MDA-MB-231 breast carcinoma (CRL-12532, RRID:CVCL_0062), NCI-H1876 small cell lung carcinoma (CRL-5902, RRID:CVCL_1503), NCI-H510A small cell lung carcinoma (HTB-184, RRID:CVCL_1565), NCI-H1417 (CRL-5869, RRID:CVCL_1469), and NCI-H196 small cell lung carcinoma (CRL-5823, RRID:CVCL_1509). Dr. Peter Houghton (Greehey Children's Cancer Research Institute, University of Texas Health Science Center, San Antonio, TX) provided Rh-18 rhabdomyosarcoma (RRID:CVCL_1659). Pooled donor human umbilical vein endothelial cells (HUVEC, Lonza, cat. CC-2519) and human mesenchymal stem cells (hMSC, Lonza, cat. PT-2501) were purchased from Lonza (Walkersville, MD).
Cell Culture. […]

[1] = compound alone, run of 11/07/2022
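Also: seven day drug exposure begun three days after spheroid seeding.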
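For viability, T/C in this document: 100% = DMSO vehicle wells and lower values mean less viable spheroid.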

IC50 (curve of compound) | Compound | viability, T/C (compound 0.0316 µM) | viability, T/C (compound 0.1 µM) | viability, T/C (compound 0.316 µM) | viability, T/C (compound 1 µM) | viability, T/C (compound 0.00316 µM) | viability, T/C (compound 0.01 µM) | further results
> 10000 nM | C#Cc1c(F)ccc2cc(O)cc(-c3ncc4c(N5CC6CCC(C5)N6)nc(OCC56CCCN5CC(F)C6)nc4c3F)c12 (stereo not drawn) | 89.4% and 98.1% and 81.9% | 126% and 101% and 93.3% | 102% and 92.8% and 90.6% | 88.3% and 89.3% and 83.3% | – | – | viability, T/C (compound 3.16 µM): 86.9% and 78.3% and 64.9%; viability, T/C (compound 10 µM): 68.7% and 66.2% and 72.1%
> 10000 nM and 8440 nM | C=C(F)C(=O)N1CCN(c2nc(OCC3CCCN3C)nc3c2CCN(c2cccc4cccc(Cl)c24)C3)CC1CC#N (stereo not drawn) | 95.4% and 95.7% and 94% | 109% and 79.9% and 106% | 97% and 96.7% and 84.9% | 89.8% and 92.8% and 78.1% | – | – | viability, T/C (compound 3.16 µM): 94.5% and 80.9% and 93.3%; viability, T/C (compound 10 µM): 97.4% and 72.3% and 43%
> 10000 nM | C=CC(=O)N1CCN(c2nc(=O)n(-c3c(C)ccnc3C(C)C)c3nc(-c4c(O)cccc4F)c(F)cc23)C(C)C1 (stereo not drawn) | 97.6% and 65.2% and 101% | 87.3% and 70.7% and 109% | 105% and 85.9% and 110% | 87.3% and 95.3% and 117% | – | – | viability, T/C (compound 3.16 µM): 82.4% and 70.7% and 96.5%; viability, T/C (compound 10 µM): 93.6% and 72% and 104%
> 3000 nM | CCN1C(C(=O)NC23CCC(C(=O)O)(CC2)CC3)C(c2cccc(Cl)c2F)C2(C(=O)Nc3cc(Cl)ccc32)C12CCCCC2 (stereo not drawn) | – | – | – | – | – | – | IC50 [1]: > 3000 nM
> 10000 nM | O=C(c1cc(Cc2n[nH]c(=O)c3ccccc23)ccc1F)N1CCN(C(=O)C2CC2)CC1 | 80.7% and 96.9% and 79.1% | 93.5% and 79.1% and 92.7% | 80.5% and 81.3% and 77.4% | 96.3% and 112% and 117% | – | – | viability, T/C (compound 3.16 µM): 97.3% and 89.7% and 106%; viability, T/C (compound 10 µM): 94.3% and 70.3% and 86.1%

More lines, now with the values behind:

Compound | IC50 (curve of compound) | viability, T/C (compound 0.0316 µM) | viability, T/C (compound 0.1 µM) | viability, T/C (compound 0.316 µM) | viability, T/C (compound 1 µM) | viability, T/C (compound 0.00316 µM) | viability, T/C (compound 0.01 µM) | further results
CCN1CCN(Cc2ccc(Nc3ncc(F)c(-c4cc(F)c5nc(C)n(C(C)C)c5c4)n3)nc2)CC1 | > 1000 nM and 793 nM | 91% and 73.6% and 115% | 87.1% and 75.9% and 100% | 73.9% and 61.4% and 72.9% | 62% and 46.7% and 81.3% | 112% and 91.6% and 83.9% | 104% and 98.3% and 105% | –
CNC(C)C(=O)NC1CN(S(=O)(=O)c2cccc(S(=O)(=O)N3CCC4CCC(C(=O)NC(c5ccccc5)c5ccccc5)N4C(=O)C(NC(=O)C(C)NC)C3)c2)CCC2CCC(C(=O)NC(c3ccccc3)c3ccccc3)N2C1=O (stereo not drawn) | > 1000 nM | – | – | – | – | – | – | IC50 (compound alone, run of 11/15/2022): > 1000 nM
COc1c(OCCCN2CCOCC2)ccc2c3n(c(=NC(=O)c4cnc(N)nc4)nc12)CCN3 | – | 91.1% and 79.6% and 45.8% | 62.9% and 81.2% and 48.9% | 50.7% and 65.9% and 55.2% | 29.3% and 51.5% and 45.5% | 88.7% and 89.2% and 87.3% | 106% and 82.6% and 84% | –
Cc1c(S(C)(=O)=O)c(-c2cc(F)cc(N3CCN(c4ccc(NS(=O)(=O)c5ccc(NC(CCN6CCC(C(=O)OCCCP(=O)(O)O)CC6)CSc6ccccc6)c(S(=O)(=O)C(F)(F)F)c5)cc4)CC3)c2)c(-c2ccc(Cl)cc2)n1C(C)C (stereo not drawn) | – | 89.8% [middle of 7 runs] | – | – | 95.1% [middle of 7 runs] | – | – | IC50 [1]: > 10000 nM
Cc1nc(N2CCC3(CC2)COC(C)C3N)c(CO)nc1Sc1ccnc(N)c1Cl (stereo not drawn) | > 3000 nM and 2290 nM | – | – | – | – | – | – | viability, T/C (compound 0.00949 µM): 94.3% and 68.7% and 97.6%; viability, T/C (compound 0.03 µM): 86.9% and 76% and 58.9%; viability, T/C (compound 0.0949 µM): 76.2% and 77.3% and 83.6%; viability, T/C (compound 0.3 µM): 76.3% and 77.2% and 97.4%; viability, T/C (compound 0.949 µM): 76.3% and 78.3% and 53%; viability, T/C (compound 3 µM): 70.9% and 57.7% and 49.1%
Cn1ncnc1[C@H]1c2n[nH]c(=O)c3cc(F)cc(c23)N[C@@H]1c1ccc(F)cc1 | > 100 nM | 90.9% and 81.5% and 68.7% | 96.8% and 78.6% and 84.5% | – | – | 99.3% and 92.3% and 101% | 82.6% and 96.8% and 94.9% | viability, T/C (compound 0.000316 µM): 87.9% and 91% and 92%; viability, T/C (compound 0.001 µM): 97.2% and 98.2% and 79.8%
NC(=O)C(=Cn1cnc(-c2cc(C(F)(F)F)cc(C(F)(F)F)c2)n1)c1cncnc1 | > 300 nM | – | – | – | – | – | – | viability, T/C (compound 0.000949 µM): 106% and 86.6% and 101%; viability, T/C (compound 0.003 µM): 105% and 110% and 63.5%; viability, T/C (compound 0.00949 µM): 101% and 62.7% and 81.4%; viability, T/C (compound 0.03 µM): 87.2% and 69% and 97.2%; viability, T/C (compound 0.0949 µM): 89.4% and 72.2% and 65.5%; viability, T/C (compound 0.3 µM): 72.1% and 90.1% and 82.9%
NC1CCC(NC2CC2c2ccccc2)CC1 (stereo not drawn) | > 100 nM | 129% and 85.6% and 94.6% | 113% and 111% and 102% | – | – | 86.1% and 99% and 95.9% | 99.9% and 127% and 86.2% | viability, T/C (compound 0.000316 µM): 104% and 97.4% and 118%; viability, T/C (compound 0.001 µM): 95.6% and 118% and 95.5%
O=C(c1ccc(F)c(F)c1Nc1ccc(I)cc1F)N1CC(O)([C@@H]2CCCCN2)C1 | 202 nM and 325 nM and 284 nM | 61.4% and 68.8% and 91.4% | 71.8% and 85.1% and 80.8% | 38.6% and 49.1% and 46.9% | 18.4% and 19.7% and 19.3% | 85.1% and 106% and 91% | 92.7% and 96% and 89.8% | –
